According to patent US20260265189A1, “NOVEL COMPOUND, AND PHARMACEUTICAL COMPOSITION COMPRISING SAME AS ACTIVE INGREDIENT” (SAPIENSBIO INC., priority 2022, published 2026):

Tests used:
[1] = system: F-actin in MRC5 cells; assay: inhibition of F-actin formation in TGF-β1-treated MRC5 cells (confocal imaging); type: cell-based, human; conditions: TGF-β1 5 ng/mL, 70 hours; for intracellular F-actin formation: MRC5, compound 10 μM, FIGS. 2C, 2D
Protocol: (§1) It is known that when the process of pulmonary fibrosis results in structural changes in cells, the level of F-actin increases. Therefore, to confirm the therapeutic efficacy of the compounds of the present invention for pulmonary fibrosis-related diseases, the structural changes of cells after treating fibrosis-induced MRC5 with the compounds of the present invention were measured by the degree of inhibition of F-actin and α-SMA formation.
(§2) Specifically, MRC5 cells were treated with Compound 32 (10 μM) or Compound 42 (10 μM) according to the present invention, CK-666 (actin polymerization inhibitor, 10 μM), nintedanib (1 μM), or DMSO, which had been dissolved in a 0.5% fetal bovine serum (FBS)-containing medium, and 2 hours later, the cells were treated with TGF-β1 (5 ng/mL) to cause fibrosis. Due to strong cytotoxicity of the drug of nintedanib, all cells die when treated with nintedanib at the same concentration (10 μM) as that of the compound of the present invention, so it is impossible to conduct a comparative experiment. Therefore, the effect was confirmed by treating the cells with 1 μM nintedanib. 70 hours later, the cells were fixed with a 2% paraformaldehyde solution for 10 minutes, treated with a 0.1% Triton X-100 solution for 10 minutes to provide cell membrane permeability, and treated with a 1% bovine serum albumin (BSA) solution to prevent non-specific binding. […] High-resolution F-actin images acquired with a STELLARIS 5 confocal microscope (Leica) were quantitatively represented by standardizing F-actin stained with rhodamine phalloidin using Alexa Fluor™ Plus 488-labeled GAPDH using self-developed analysis software through programming. […] High-resolution α-SMA images acquired with a STELLARIS 5 confocal microscope (Leica) were quantitatively represented by standardizing α-SMA stained with an anti-α-SMA-FITC antibody with Alexa Fluor™ Plus 488-labeled GAPDH using self-developed analysis software through programming.

[2] = system: α-SMA in MRC5 cells; assay: inhibition of α-SMA formation in TGF-β1-treated MRC5 cells (confocal imaging); type: cell-based, human; conditions: TGF-β1 5 ng/mL, 70 hours; for intracellular α-SMA formation: MRC5, compound 10 μM, FIGS. 2A, 2B
Protocol: as §1, §2

[3] = system: α-SMA expression in MRC5 cells; assay: inhibition of α-SMA expression in MRC5 cells, image screening method; type: cell-based; conditions: Homo sapiens; MRC5, compound 10 μM, TGF-β1 5 ng/mL, 72 hours, relative to TGF-β1 alone; read-out: Inhibitory activity (α-SMA expression inhibition)
Procedure, shortened: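 MRC5 cells exposed to compound (10 μM) or DMSO with TGF-β1 (5 ng/mL) for 72 h, then fixed, permeabilised, blocked and immunostained for α-SMA (FITC) and GAPDH. Image-based quantitation; α-SMA level with compound plus TGF-β1 expressed relative to TGF-β1 alone.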

[4] = system: IL-6 secretion by M1 macrophages derived from THP-1; assay: IL-6 secretion by LPS-activated THP-1-derived M1 macrophages (cytometric bead array); type: cell-based, human; conditions: LPS 10 ng/mL 6 hours, compound 1 μM or 10 μM, FIG. 3
Protocol: IL-6 is one of the pro-inflammatory cytokines secreted by activated macrophages, M1 macrophages, and is a potent trigger of fibrosis. Therefore, to evaluate the inhibitory activity of the compounds according to the present invention to inhibit pulmonary fibrosis through the inhibition of inflammatory effects, the extent of IL-6 secretion by macrophages after treatment of activated macrophages with the compounds was compared.
First, macrophages were prepared through the following process: 1 mL of a medium containing 5×10^5 cells/mL of THP-1 cells (Korean Cell Line Bank; KCLB NO. 40202) grown in a complete medium (a medium in which Roswell Park Memorial Institute [RPMI] is supplemented with 10% [vol/vol] fetal bovine serum [FBS] and 1% [vol/vol] penicillin/streptomycin [P/S]) was dispensed by 1 mL into each well of a 12-well plate. […]
Subsequently, the measurement of a cytokine level was performed through the following process: the secured complete medium was centrifuged at 13,000 RPM for 10 minutes in a 4° C. centrifuge, and then a supernatant was transferred to a new 1.5 mL microcentrifuge tube. […] The amount of IL-6 binding to the beads was measured using a Novocyte 3000 flow cytometer (Agilent).

[5] = system: MRC5 cells; assay: cytotoxicity in MRC5 cells; type: cell-based, human; conditions: 10 μM
[6] = system: α-SMA expression in MRC5 cells; conditions: stated as known; cited from earlier work
[7] = cited from earlier work

Row | Structure (SMILES) | intracellular F-actin formation [1] | intracellular α-SMA formation [2] | inhibition at 10 µM [3] [%] | IL-6 production [4] | F-actin formation ([1]; MRC5, nintedanib 1 μM) | effect of inhibiting α-SMA formation ([2]; MRC5, nintedanib 1 μM) | cytotoxicity [5] | α-SMA inhibitory activity [6] [%] | therapeutic effect ([7]; IPF treatment, stated as known) [%] | lung function improvement ([7]; clinical use as therapeutic drug for pulmonary fibrosis)
1 | CC(C)CN1CCC(NC(=O)N2CCN(c3ccc(F)cc3)c3cc(F)ccc32)CC1 [Compound 32, 6-fluoro-4-(4-fluorophenyl)-N-(1-isobutylpiperidin-4-yl)-3,4-dihydroquinoxaline-1(2H)-carboxamide] | decreased to a level similar to that in the group not treated with TGF-β1 | decreased to a level similar to that in the group not treated with TGF-β1 | ≥ 70 | decrease |  |  |  |  |  | 
2 | CC(C)N1CC(NC(=O)N2CCN(c3ccc(F)cc3)c3cc(F)ccc32)C1 [Compound 42, 6-fluoro-4-(4-fluorophenyl)-N-(1-isopropylazetidin-3-yl)-3,4-dihydroquinoxaline-1(2H)-carboxamide] | decreased to a level similar to that in the group not treated with TGF-β1 | decreased to a level similar to that in the group not treated with TGF-β1 | 50 to 70 | decrease |  |  |  |  |  | 
3 | COC(=O)c1ccc2c(c1)NC(=O)/C2=C(\Nc1ccc(N(C)C(=O)CN2CCN(C)CC2)cc1)c1ccccc1 [nintedanib] |  |  |  |  | did not inhibit | lower than Compounds 32 and 42 | all cells die | 0 | 10 | about 10%
